Source: patent US8772512B2, “Crystallisation process for 1-(β-D-glucopyranosyl)-4-methyl-3-[5-(4-fluorophenyl)-2-thienylmethyl] benzene” (Janssen Pharmaceutica NV, priority 2009, dated 2014)

Legend:
[1] = Particle size distribution by laser diffraction (Malvern Mastersizer 2000, wet dispersion); format: physicochemical; settings: Fraunhofer optical model, hemihydrate; for particle size distribution D10: d10 cumulative undersize by volume, dispersed in 1% (w/v) polysorbate 20 in water; for particle size distribution D50: d50 cumulative undersize by volume; for particle size distribution D90: d90 cumulative undersize by volume
Protocol: Particle size of original compound (I) and crystallised compound (I) according to the procedure of Example 1 have been determined with laser diffraction (LD). For this purpose, a Malvern Mastersizer 2000 laser diffractometer (Malvern, U.K.) has been used, which was equipped with a Hydro 2000S wet dispersion module. Prior to analysis, an amount of ca. 200 mg of the product was dispersed in 1% (w/v) polysorbate 20 in water by means of vigorous shaking for 30 seconds. A representative portion of this dispersion was than added to the reservoir of the wet dispersion module, which for this purpose was filled with water. The liquid medium was circulated via the measurement cell of the instrument, to allow measurement of the product specific scattering pattern. Based on the scattering intensities as measured under different angles relative to the incoming collimated laser beam, for compound (I) the particle size distribution (PSD) by volume was calculated based on the Fraunhofer optical model. For the PSD, the d10, d50 and d90 cumulative undersize were reported as the relevant statistical descriptors.

[2] = Bulk and tap density (25 g in 100-ml graduated cylinder; 500 taps); format: physicochemical; settings: for Bulk density: 25 g, volume in 100-ml graduated cylinder; for Bulk density / Tap density: hemihydrate; for Tap density: after 500 taps
Protocol: The bulk and tap densities of the crystallised 1-(β-D-glucopyranosyl)-4-methyl-3-[5-(4-fluorophenyl)-2-thienylmethyl] benzene hemihydrate were measured. The bulk density of 25 g of compound (I) was measured by recording its volume in a 100-ml graduated cylinder. Tap density volume was then measured after 500 taps.

For `Cc1ccc([C@@H]2O[C@H](CO)[C@@H](O)[C@H](O)[C@H]2O)cc1Cc1ccc(-c2ccc(F)cc2)s1` [crystallised compound (I), 1-(β-D-glucopyranosyl)-4-methyl-3-[5-(4-fluorophenyl)-2-thienylmethyl] benzene hemihydrate], the “particle size distribution D10” value [1] was 20 μm, the “particle size distribution D50” value [1] was 49 μm and the “particle size distribution D90” value [1] was 102 μm. The Bulk density [2] was 0.35 g/mL, the Tap density [2] was 0.54 g/mL and the “bulk density higher than for original compound (I)” value ([2]; crystallised according to Example 1 versus original compound (I)) was 20%.

In the case of `Cc1ccc([C@@H]2O[C@H](CO)[C@@H](O)[C@H](O)[C@H]2O)cc1Cc1ccc(-c2ccc(F)cc2)s1` [original compound (I), 1-(β-D-glucopyranosyl)-4-methyl-3-[5-(4-fluorophenyl)-2-thienylmethyl] benzene hemihydrate], the “particle size distribution D10” value [1] is reported as 14 μm, the “particle size distribution D50” value [1] is reported as 43 μm and the “particle size distribution D90” value [1] is reported as 116 μm. For the same compound, the Bulk density [2] was 0.28 g/mL and the Tap density [2] was 0.48 g/mL.
